# From patent US12692471B2, “High aspect ratio devices and methods for vitrification of biological samples by rapid cooling” (The General Hospital Corporation, priority 2020, dated 2026)
# Assays:
# C. parvum oocysts [1] = assay: Oocyst viability by propidium iodide (PI) exclusion, flow cytometry; type: cell-based, Cryptosporidium parvum; conditions: for viability (PI exclusion): pre-freeze, 50% DMSO, 20% bleach condition
# Description: To increase the intracellular concentration of CPA, oocysts were bleached with various concentrations of bleach-5% or 20% and then incubated with CPA cocktails consisting of trehalose (Sigma) and DMSO (Sigma) at different concentrations. Briefly, bleached oocysts were first dehydrated in 1.6 M or 1 M trehalose solution for 10 min and then incubated for another 5-15 min with DMSO achieving its final concentration of 30% or 50% (ambient conditions were used throughout). The DMSO/trehalose cocktail was then diluted by incubation with excess PBS (at ratio 1:100) for 30 min at room temperature and removed by centrifugation (18,000×g, 2 min). Cytotoxicity attributable to the CPA cocktail was measured by inclusion of PI (Sigma) at 10 μg/mL using flow cytometry (ACCURI® C6, BD Life Sciences) and was normalized to its control in PBS for each condition.
# In an effort to maximize the concentration of intracellular and extracellular CPA without compromising oocyst viability, oocysts were gradually exposed to higher concentrations of DMSO by two-step addition. Here, 6-week-old bleached oocysts (5% or 20%) were first dehydrated in 1.6 M trehalose for 10 min. DMSO was added to achieve 0.8 M trehalose/30% DMSO solution and incubated for 5 min. The second addition of DMSO led to a final concentration of 0.5 M trehalose/50% DMSO and was incubated for 1 min. CPA cocktail was then diluted as described above. Cytotoxicity attributable to CPA cocktail was measured by inclusion of PI and was normalized to the untreated oocyst control in PBS.
# (§1) Bleached (20%) C. parvum oocysts at 1-2, 6 and 12 weeks of age were cryopreserved as described above using a two-step DMSO addition protocol, such that final concentration of 0.5 M trehalose/50% DMSO was achieved. […] Pre-freeze and post-freeze oocyst viability was measured by PI exclusion at 10 μg/mL using flow cytometry and by an in vitro infectivity assay. […]
# For evaluation of cryopreservation in insemination straws and cryovials, pre-freeze and post-freeze viability was measured only by PI exclusion as described above.
# C. parvum oocysts [2] = assay: In vitro infectivity of oocysts in MDBK cells; type: cell-based, Cryptosporidium parvum
# Description: All CPA cocktails described in FIG. 2A were further tested for infectivity in the in vitro model of epithelial cell infection using MDBK cells. Twenty thousand cells were seeded into each well of a 96-well culturing plate (Falcon) and maintained for two days to reach confluence (defined at 4×10^4/well). Oocysts were prepared for infection by bleaching and incubation with CPA cocktail as described above. After removal of diluted CPA in excess PBS, the oocyst pellet was resuspended in 50 μL of 0.75% sodium taurocholate (Sigma) and incubated at 37° C. for 15 min to prompt excystation. Pre-excysted oocysts were then added onto confluent cell monolayers at MOI 1:3. After 24-h co-incubation of parasite with cell monolayer, cultures were washed with PBS to remove extracellular stages of parasite, permeabilized with 100% methanol for 10 min at room temperature and then washed again with PBS. After fixation, cells were blocked with 10% FBS for 30 min and then incubated with fluorescein-labeled Vicia villosa lectin (Vector Laboratories) at concentration […] for 30 min to visualize intracellular stages of the parasite. After the final wash with PBS, monolayers were inspected with a Nikon ECLIPSE® Ti-E microscope (Nikon Instruments Inc.). Four images were taken of each well at 200× magnification using a FITC filter at 100 ms exposure. The number of fluorescing infection foci was then counted by ImageJ 1.48v particle analyzer using the following settings: triangle threshold 15-255, size exclusion at 10-1,000 pixel^2 and circularity at 0.1-1.0. Results depicted in FIG. 2B are expressed as percent infectivity of the control oocysts, which were treated with PBS in place of CPA.
# as §1
# IFN-γ knockout mice = assay: In vivo infectivity of cryopreserved oocysts
# Description: C. parvum oocysts at 2, 6 and 12 weeks of age were bleached (20%) and cryopreserved in the vitrification cassettes as described above using a two-step DMSO addition protocol with final concentration of 0.5 M trehalose/50% DMSO. Infectivity of cryopreserved oocysts was evaluated in 8-week-old female IFN-γ knockout mice bred under pathogen-free conditions (Jackson Laboratory, Bar Harbor, ME, USA). All mice experiments were conducted in an AAALAC accredited institution in compliance with the study protocol No. G2017-107 approved by the Tufts University Institutional Animal Care and Use Committee in accordance with the Guide for the Care and Use of Laboratory Animals (National Research Council). Mice were randomly assigned into groups of three by a blinded animal caretaker, however the investigators were not blinded during this experiment.
# The animal care, inoculation and monitoring procedures were performed as described elsewhere (Jaskiewicz et al., Cryopreservation of infectious Cryptosporidium parvum oocysts. Nat. Commun. 9, 2883 (2018)), with modifications. Mice were immunosuppressed throughout the course of the experiment by administration of dexamethasone in drinking water at concentration 10 mg/L. Three days after immunosuppressive treatment started, each mouse received 30,000 PI^− cryopreserved oocysts in PBS suspension by oral gavage. […] Mice negative for signs of infection were monitored until 11 DPI. Intensity of fecal shedding was measured daily by inspection of the acid-fast stained fecal smear slides, prepared from a single fecal pellet of approximately equal size, for presence of oocysts in 30 fields (1000×).
# The animal experiments which produced negative cryopreservation outcome were performed as described above with exception of few procedural details. A summary table describing the different cryopreservation methods evaluated and the corresponding outcome can be found in Table 1. […]
# [3] = 30% DMSO 5 min then 50% DMSO 1 min, compared with one-step at same overall concentration
structure (smiles),measurement,setting,value
"C[S+](C)[O-] [DMSO, dimethyl sulfoxide]","pre-freeze viability, two-step vs one-step DMSO addition",C. parvum oocysts [1]; [3],significantly increased
same,viability (PI exclusion),C. parvum oocysts [1]; 5 min incubation,59.4±2.3%
same,viability (PI exclusion),C. parvum oocysts [1]; after 15 min or longer,17.5±5.0%
same,"pre-freeze infectivity in vitro, two-step vs one-step DMSO addition",C. parvum oocysts [2]; [3],significantly increased
same,in vitro infectivity,"C. parvum oocysts [2]; pre-freeze, 50% DMSO, 5 min incubation, 20% bleach condition, percent of control oocysts in PBS",38.7±17.0%
same,infectivity (in vitro),"C. parvum oocysts [2]; pre-freeze, 50% DMSO, after 15 min or longer, 20% bleach condition",6.4±1.9%
same,Infectivity in animals after thawing,"IFN-γ knockout mice; Rectangular capillary, 2 weeks oocysts, trehalose 1.6M/0.8M, One-step 50% DMSO, 5 min, dose 10,000",No
same,Infectivity in animals after thawing,"IFN-γ knockout mice; Vitrification cassette, 2-12 weeks oocysts, trehalose 1.6M/0.5M, Two-step 30% DMSO/50% DMSO, 5 min/1 min, dose 30,000",Yes
same,Infectivity in animals after thawing,"IFN-γ knockout mice; Vitrification cassette, 6 weeks oocysts, trehalose 1.6M/0.8M, One-step 50% DMSO, 5 min, dose 10,000",No
